In patent US11000033B2, “Ketone or oxime compound, and herbicide” (NISSAN CHEMICAL CORPORATION, priority 2014, dated 2021):

Tests used:
Type in all cases: in vivo
[1] = tested on: Echinochloa oryzacola Vasing.; assay: Test Example 1: herbicidal activity, application before weed generation in submerged conditions (symbol A); conditions: application herbicide amount 320 g/ha
Outline: (§1)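 Paddy pre-emergence test. Formulated emulsion, water-diluted to a predetermined rate, is applied to floodwater on sowing day; rice transplanted at 2.5 leaves. Effect read at 3 weeks on a 0–5 herbicidal-ratio scale.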

Monochoria vaginalis [2] = assay: Test Example 1: herbicidal activity, application before weed generation in submerged conditions (symbol C); conditions: application herbicide amount 320 g/ha
Outline: as §1

[3] = tested on: Echinochloa oryzacola Vasing.; assay: Test Example 2: herbicidal activity, application during weed generation in submerged conditions (symbol A); conditions: Table 23; application herbicide amount 320 g/ha; grade 0-5 by criteria of Test Example 1
Outline: (§2)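 Read-out: herbicidal effect on each species rated on a visual scale 3 weeks after treatment. Plants were raised together from seed in flooded alluvial soil (4 cm water) at 25° C. to 30° C. and treated at one to two leaves by water-surface application of diluted emulsion.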

Scirpus juncoides = assay: Test Example 2: herbicidal activity, application during weed generation in submerged conditions (symbol B); conditions: Table 23; application herbicide amount 320 g/ha; grade 0-5 by criteria of Test Example 1
Outline: as §2

Monochoria vaginalis [4] = assay: Test Example 2: herbicidal activity, application during weed generation in submerged conditions (symbol C); conditions: Table 23; application herbicide amount 320 g/ha; grade 0-5 by criteria of Test Example 1
Outline: as §2

Setaria viridis = assay: Test Example 4: herbicidal effect by soil treatment (symbol G); conditions: for G: Setaria viridis, herbicidal effect grade: 320 g/ha
Outline: (§3)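 Seeds were sown in sterilized diluvial soil, covered with about 1.5 cm of soil, and the soil surface was sprayed with a water-diluted emulsion of the compound at a predetermined rate. Plants grew in a greenhouse at 25° C. to 30° C.; effects were scored visually 3 weeks after application.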

Abutilon theophrasti = assay: Test Example 4: herbicidal effect by soil treatment (symbol M)
Outline: as §3

Galium spurium [5] = assay: Test Example 4: herbicidal effect by soil treatment (symbol Q)
Outline: as §3

corn = assay: Test Example 4: effect on crop by soil treatment (symbol c); conditions: for c: corn, effect grade on crop: 320 g/ha
Outline: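 Steps: fill box with sterilized diluvial soil; sow seed spot-like; cover with ~1.5 cm soil; grow in greenhouse (25° C. to 30° C.).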

wheat = assay: Test Example 4: effect on crop by soil treatment (symbol e); conditions: for e: wheat, effect grade on crop: 320 g/ha
Outline: (§4)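 Greenhouse culture at 25° C. to 30° C. followed sowing of seed in spots on sterilized diluvial soil with a soil cover close to 1.5 cm thick.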

beet [6] = assay: Test Example 4: effect on crop by soil treatment (symbol f); conditions: for f: beet, effect grade on crop: 320 g/ha
Outline: as §4

Alopecurus myosuroides = assay: Test Example 5: herbicidal effect by foliage application, plastic box (symbol J); conditions: 320 g/ha, 3 weeks after application
Outline: (§5)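 After sowing into sterilized diluvial soil and growing two weeks under glass at 25° C. to 30° C., seedlings receive a uniform foliar spray of diluted emulsion. Damage is judged visually three weeks on.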

Lolium multiflorum Lam. = assay: Test Example 5: herbicidal effect by foliage application, plastic box (symbol K); conditions: 320 g/ha, 3 weeks after application
Outline: as §5

Amaranthus retroflexus = assay: Test Example 5: herbicidal effect by foliage application, plastic box (symbol N); conditions: 320 g/ha, 3 weeks after application
Outline: as §5

Galium spurium [7] = assay: Test Example 5: herbicidal effect by foliage application, plastic box (symbol Q); conditions: 320 g/ha, 3 weeks after application
Outline: as §5

rice plant = assay: Test Example 5: effect on crop by foliage application, plastic box (symbol b); conditions: 320 g/ha, 3 weeks after application
Outline: (§6)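 Greenhouse culture at 25° C. to 30° C. followed spot-like sowing into sterilized diluvial soil, with seed covered by roughly 1.5 cm of soil.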

beet [8] = assay: Test Example 5: effect on crop by foliage application, plastic box (symbol f); conditions: 320 g/ha, 3 weeks after application
Outline: as §6

[9] = application herbicide amount 320 g/ha

| Compound | A (Echinochloa oryzacola Vasing.) herbicidal effect grade [1] | C (Monochoria vaginalis) herbicidal effect grade (Monochoria vaginalis [2]) | Herbicidal effect grade, A: Echinochloa oryzacola Vasing. [3] | Herbicidal effect grade, B: Scirpus juncoides (Scirpus juncoides) | Herbicidal effect grade, C: Monochoria vaginalis (Monochoria vaginalis [4]) | J: Alopecurus myosuroides, herbicidal effect grade (Alopecurus myosuroides) | K: Lolium multiflorum Lam., herbicidal effect grade (Lolium multiflorum Lam.) | N: Amaranthus retroflexus, herbicidal effect grade (Amaranthus retroflexus) | Herbicidal effect grade, A: Echinochloa oryzacola Vasing. [1] | G: Setaria viridis, herbicidal effect grade (Setaria viridis) | M: Abutilon theophrasti, herbicidal effect grade (Abutilon theophrasti; 320 g/ha) | Q: Galium spurium, herbicidal effect grade (Galium spurium [5]; 320 g/ha) | c: corn, effect grade on crop (corn) | e: wheat, effect grade on crop (wheat) | f: beet, effect grade on crop (beet [6]) | J: Alopecurus myosuroides, herbicidal effect (criteria 0-5) (Alopecurus myosuroides) | K: Lolium multiflorum Lam., herbicidal effect (criteria 0-5) (Lolium multiflorum Lam.) | Q: Galium spurium, herbicidal effect (criteria 0-5) (Galium spurium [7]) | b: directly sowed rice plant, effect on crop (criteria 0-5) (rice plant) | f: beet, effect on crop (criteria 0-5) (beet [8]) | other results |
| --- | --- | --- | --- | --- | --- | --- | --- | --- | --- | --- | --- | --- | --- | --- | --- | --- | --- | --- | --- | --- | --- |
| CON=C(C)CC1C(O)=C(c2c(C)cc(C)cc2C)C(=O)C1C (mixture of isomers) [12-002] | 5 (Herbicidal ratio of 90% or more (almost completely withered)) | 2 (Herbicidal ratio of 20% or higher and lower than 40%) | 5 (Herbicidal ratio of 90% or more (almost completely withered)) | 3 (Herbicidal ratio of 40% or higher and lower than 70%) | 1 (Herbicidal ratio of 5% or higher and lower than 20%) | 5 (Herbicidal ratio of 90% or more (almost completely withered)) | 5 (Herbicidal ratio of 90% or more (almost completely withered)) | 0 (Herbicidal ratio of 5% or lower (almost no effect)) | – | – | – | – | – | – | – | – | – | – | – | – | Herbicidal effect grade, G: Setaria viridis (Setaria viridis; [9]): 5 (Herbicidal ratio of 90% or more (almost completely withered)); Herbicidal effect grade, M: Abutilon theophrasti (Abutilon theophrasti; [9]): 0 (Herbicidal ratio of 5% or lower (almost no effect)); Herbicidal effect grade, Q: Galium spurium (Galium spurium [5]; [9]): 0 (Herbicidal ratio of 5% or lower (almost no effect)); Effect on crop grade, c: corn (corn; [9]): 3 (Herbicidal ratio of 40% or higher and lower than 70%); Effect on crop grade, e: wheat (wheat; [9]): 0 (Herbicidal ratio of 5% or lower (almost no effect)); Effect on crop grade, f: beet (beet [6]; [9]): 0 (Herbicidal ratio of 5% or lower (almost no effect)); Q: Galium spurium, herbicidal effect grade (Galium spurium [7]): 4 (Herbicidal ratio of 70% or higher and lower than 90%); b: directly sowed rice plant, effect on crop grade (rice plant): 5 (Herbicidal ratio of 90% or more (almost completely withered)); f: beet, effect on crop grade (beet [8]): 3 (Herbicidal ratio of 40% or higher and lower than 70%) |
| COc1ccc(CON=C(C)CC2CC(O)=C(c3c(C)cc(C)cc3C)C2=O)cc1 (stereo not shown) [1-112] | – | – | 4 (Herbicidal ratio of 70% or higher and lower than 90%) | 4 (Herbicidal ratio of 70% or higher and lower than 90%) | 4 (Herbicidal ratio of 70% or higher and lower than 90%) | – | – | – | 5 (Herbicidal ratio of 90% or more (almost completely withered)) | 5 (Herbicidal ratio of 90% or more (almost completely withered)) | 0 (Herbicidal ratio of 5% or lower (almost no effect)) | 0 (Herbicidal ratio of 5% or lower (almost no effect)) | 1 (Herbicidal ratio of 5% or higher and lower than 20%) | 0 (Herbicidal ratio of 5% or lower (almost no effect)) | 0 (Herbicidal ratio of 5% or lower (almost no effect)) | 5 (Herbicidal ratio of 90% or more (almost completely withered)) | 5 (Herbicidal ratio of 90% or more (almost completely withered)) | 3 (Herbicidal ratio of 40% or higher and lower than 70%) | 5 (Herbicidal ratio of 90% or more (almost completely withered)) | 0 (Herbicidal ratio of 5% or lower (almost no effect)) | Herbicidal effect grade, C: Monochoria vaginalis (Monochoria vaginalis [2]): 5 (Herbicidal ratio of 90% or more (almost completely withered)); N: Amaranthus retroflexus, herbicidal effect (criteria 0-5) (Amaranthus retroflexus): 0 (Herbicidal ratio of 5% or lower (almost no effect)) |
| CCC(CC1CC(O)=C(c2c(C)cc(Br)cc2OC)C1=O)=NOC (mixture of isomers) [13-001] | 5 (Herbicidal ratio of 90% or more (almost completely withered)) | 0 (Herbicidal ratio of 5% or lower (almost no effect)) | 5 (Herbicidal ratio of 90% or more (almost completely withered)) | 0 (Herbicidal ratio of 5% or lower (almost no effect)) | 0 (Herbicidal ratio of 5% or lower (almost no effect)) | 5 (Herbicidal ratio of 90% or more (almost completely withered)) | 5 (Herbicidal ratio of 90% or more (almost completely withered)) | 0 (Herbicidal ratio of 5% or lower (almost no effect)) | – | – | – | – | – | – | – | – | – | – | – | – | M: Abutilon theophrasti, herbicidal effect grade (Abutilon theophrasti; [9]): 0 (Herbicidal ratio of 5% or lower (almost no effect)); Q: Galium spurium, herbicidal effect grade (Galium spurium [5]; [9]): 0 (Herbicidal ratio of 5% or lower (almost no effect)); c: corn, effect on crop grade (corn; [9]): 5 (Herbicidal ratio of 90% or more (almost completely withered)); e: wheat, effect on crop grade (wheat; [9]): 0 (Herbicidal ratio of 5% or lower (almost no effect)); f: beet, effect on crop grade (beet [6]; [9]): 0 (Herbicidal ratio of 5% or lower (almost no effect)); Q: Galium spurium, herbicidal effect grade (Galium spurium [7]): 0 (Herbicidal ratio of 5% or lower (almost no effect)); b: directly sowed rice plant, effect on crop grade (rice plant): 5 (Herbicidal ratio of 90% or more (almost completely withered)); f: beet, effect on crop grade (beet [8]): 0 (Herbicidal ratio of 5% or lower (almost no effect)) |
| CC(CC1CC(O)=C(c2c(C)cc(C)cc2C)C1=O)=NOCc1ccc(Cl)cc1 (stereo not shown) [1-137] | – | – | 4 (Herbicidal ratio of 70% or higher and lower than 90%) | 4 (Herbicidal ratio of 70% or higher and lower than 90%) | 3 (Herbicidal ratio of 40% or higher and lower than 70%) | – | – | – | 5 (Herbicidal ratio of 90% or more (almost completely withered)) | 5 (Herbicidal ratio of 90% or more (almost completely withered)) | 0 (Herbicidal ratio of 5% or lower (almost no effect)) | 0 (Herbicidal ratio of 5% or lower (almost no effect)) | 0 (Herbicidal ratio of 5% or lower (almost no effect)) | 0 (Herbicidal ratio of 5% or lower (almost no effect)) | 0 (Herbicidal ratio of 5% or lower (almost no effect)) | 5 (Herbicidal ratio of 90% or more (almost completely withered)) | 5 (Herbicidal ratio of 90% or more (almost completely withered)) | 0 (Herbicidal ratio of 5% or lower (almost no effect)) | 5 (Herbicidal ratio of 90% or more (almost completely withered)) | 0 (Herbicidal ratio of 5% or lower (almost no effect)) | Herbicidal effect grade, C: Monochoria vaginalis (Monochoria vaginalis [2]): 5 (Herbicidal ratio of 90% or more (almost completely withered)) |
| CC(CC1CC(O)=C(c2c(C)cc(C)cc2C)C1=O)=NOC1CCCC1 (stereo not shown) [1-106] | – | – | 5 (Herbicidal ratio of 90% or more (almost completely withered)) | 0 (Herbicidal ratio of 5% or lower (almost no effect)) | 0 (Herbicidal ratio of 5% or lower (almost no effect)) | – | – | – | 5 (Herbicidal ratio of 90% or more (almost completely withered)) | 5 (Herbicidal ratio of 90% or more (almost completely withered)) | 0 (Herbicidal ratio of 5% or lower (almost no effect)) | 0 (Herbicidal ratio of 5% or lower (almost no effect)) | 1 (Herbicidal ratio of 5% or higher and lower than 20%) | 3 (Herbicidal ratio of 40% or higher and lower than 70%) | 0 (Herbicidal ratio of 5% or lower (almost no effect)) | 5 (Herbicidal ratio of 90% or more (almost completely withered)) | 5 (Herbicidal ratio of 90% or more (almost completely withered)) | 0 (Herbicidal ratio of 5% or lower (almost no effect)) | 5 (Herbicidal ratio of 90% or more (almost completely withered)) | 0 (Herbicidal ratio of 5% or lower (almost no effect)) | N: Amaranthus retroflexus, herbicidal effect (criteria 0-5) (Amaranthus retroflexus): 5 (Herbicidal ratio of 90% or more (almost completely withered)) |
